Measurements published in US10800741B2 (ANCUREALL PHARMACEUTICAL (SHANGHAI) CO., LTD., priority 2017, dated 2020).

Experiments:
MDA-MB-453 = test: In vitro growth inhibition of MDA-MB-453 cells; type: cell-based; details: Homo sapiens, PI3KCA H1047R, FGFR4+++/Y367C
Experimental: (§1) Adherent cells were digested with 0.25% trypsin-EDTA (Gibco). Suspension culture cells were collected by centrifugation (1700 rpm, 3 minutes). The supernatant was discarded and the cells were counted. According to each cell growth cycle, different concentrations of cells were prepared (5˜10×10^4 cells per ml), and inoculated to 96-well plates (Corning), with 100 μl per well, and incubated overnight at 37° C., 5% CO2. The next day, the test compound was added to the cultured cells (2 wells in parallel). The final concentration of the solvent was less than 1/1,000. The cells were further cultured for 3 to 5 days and assayed by MTT.
(§2) The MTT test reagent was a Dojindo CCK8 kit and the Microplate Reader was a THERMO […] FC instrument.
(§3) The adherent cells were taken out from the cell culture medium, and immediately added to a freshly prepared complete medium containing 10% CCK8 (5% FBS), 100 ul per hole. The suspended cells were directly added to a CCK8 reagent until reaching a final concentration of 10% and cultured for 1 to 4 hours. When a dark yellow color could be observed in the solvent control wells, the absorbance value at OD450 nm was measured and the cell growth rate was calculated according to the following formula: Cell Growth Rate (%)=100×(T−T0)/(C−T0)
(§4) T=optical density of drug-treated cell wells−optical density of blank control wells; T0=optical density of cell wells before drug treatment−optical density of blank control wells; C=optical density of solvent control wells−optical density of blank control wells. […] The experiments were repeated 1 to 3 times and a statistical analysis of data was conducted.
(§5) Mutations in the FGFR1-4 gene often occur in different types of cancer patients. In order to test the growth inhibition activity of the present compound against tumor cells expressing different FGFR variants, tumor cell lines expressing representative FGFR1-4 were selected for further determining the activity of compounds 25, 66, 38 and 95 of the present invention. BGJ398, a selective inhibitor of FGFR1-4, was used as the control compound. The specific test method is the same as test example 1.

MFM-223 = test: In vitro growth inhibition of MFM-223 cells; type: cell-based; details: Homo sapiens, PI3KCA H1047R, FGFR1 amp, FGFR2 amp
Experimental: as §1, §2, §3, §4, §5

Hep3B2 (FGFR3/4+++) = test: In vitro growth inhibition of Hep3B2 tumor cells (MTT/CCK8); type: cell-based, Human; details: Homo sapiens, Hep3B; in vitro growth inhibition (or induction of apoptosis), cells cultured 3 to 5 days, MTT (CCK8); read-out: IC50 Hep3B2 (FGFR3/4+++)
H1703 (PDGFRa amp) = test: In vitro growth inhibition of H1703 tumor cells (MTT/CCK8); type: cell-based, Human; details: Homo sapiens, NCI-H1703; in vitro growth inhibition (or induction of apoptosis), cells cultured 3 to 5 days, MTT (CCK8); read-out: IC50 H1703 (PDGFRa amp)
JIMT-1 = test: In vitro growth inhibition of JIMT-1 cells; type: cell-based; details: Homo sapiens, FGFR1 amp, HER2 amp, PI3KCA C420R
Experimental: as §1, §2, §3, §4, §5

Huh-7 = test: In vitro growth inhibition of Huh-7 cells; type: cell-based; details: Homo sapiens, FGFR3+++, FGFR4 +++
Experimental: as §1, §2, §3, §4, §5

AN3-CA = test: In vitro growth inhibition of AN3-CA cells; type: cell-based; details: Homo sapiens, FGFR2 mutant
Experimental: as §1, §2, §3, §4, §5

H1581 (FGFR1 amp) = test: In vitro growth inhibition of H1581 tumor cells (MTT/CCK8); type: cell-based, Human; details: Homo sapiens, NCI-H1581; in vitro growth inhibition (or induction of apoptosis), cells cultured 3 to 5 days, MTT (CCK8); read-out: IC50 H1581 (FGFR1 amp)
DMS114 = test: In vitro growth inhibition of DMS114 cells; type: cell-based; details: Homo sapiens, DMS-114, FGFR1 amp
Experimental: as §1, §2, §3, §4, §5

RT112/84 = test: In vitro growth inhibition of RT112/84 cells; type: cell-based; details: Homo sapiens, FGFR3-TACC3
Experimental: as §1, §2, §3, §4, §5

SNU-16 = test: In vitro growth inhibition of SNU-16 cells; type: cell-based; details: Homo sapiens, FGFR2 amp
Experimental: as §1, §2, §3, §4, §5

A375 = test: In vitro growth inhibition of A375 cells; type: cell-based; details: Homo sapiens, A-375, BRAF V600E, FGFR2 mutant
Experimental: as §1, §2, §3, §4, §5

Cal-120 = test: In vitro growth inhibition of Cal-120 cells; type: cell-based; details: Homo sapiens, FGFR1 amp
Experimental: as §1, §2, §3, §4, §5

JHH-7 = test: In vitro growth inhibition of JHH-7 cells; type: cell-based; details: Homo sapiens, JHH7, FGFR3+++, FGFR4 +++
Experimental: as §1, §2, §3, §4, §5

KCL-22 (BCR-ABL) = test: In vitro growth inhibition of KCL-22 tumor cells (MTT/CCK8); type: cell-based, Human; details: Homo sapiens, KCL-22; in vitro growth inhibition (or induction of apoptosis), cells cultured 3 to 5 days, MTT (CCK8); read-out: IC50 KCL-22 (BCR-ABL)
Karpas 299 (NPM-ALK) = test: In vitro growth inhibition of Karpas 299 tumor cells (MTT/CCK8); type: cell-based, Human; details: Homo sapiens, KARPAS-299; in vitro growth inhibition (or induction of apoptosis), cells cultured 3 to 5 days, MTT (CCK8); read-out: IC50 Karpas 299 (NPM-ALK)
Kasumi-1 (KIT N822K) = test: In vitro growth inhibition of Kasumi-1 tumor cells (MTT/CCK8); type: cell-based, Human; details: Homo sapiens, Kasumi 1; in vitro growth inhibition (or induction of apoptosis), cells cultured 3 to 5 days, MTT (CCK8); read-out: IC50 Kasumi-1 (KIT N822K)
KATO III (FGFR2 amp) = test: In vitro growth inhibition of KATO III tumor cells (MTT/CCK8); type: cell-based, Human; details: Homo sapiens, KATO III; in vitro growth inhibition (or induction of apoptosis), cells cultured 3 to 5 days, MTT (CCK8); read-out: IC50 KATO III (FGFR2 amp)
Jurkat = test: In vitro growth inhibition of FLT3 wild-type normal expressing cells Jurkat; type: cell-based; details: Homo sapiens, cells normally expressing FLT3 wild-type
Experimental: as §1, §2, §3, §4
(§6) The present compounds which has a high growth inhibition activity on tumor cells positive expressing FLT3-ITD were selected for the determination of IC50 concentration on FLT3 wild tyoverexpressing cells RS4:11 and FLT3 wild-type normal expressing cells Jurkat. The specific test method is the same as that of test example 1.

RS4:11 = test: In vitro growth inhibition of FLT3 wild type overexpressing cells RS4:11; type: cell-based; details: Homo sapiens, cells over expressing FLT3 wild-type
Experimental: as §1, §2, §3, §4, §6

MOLM-13 (FLT3-ITD) = test: In vitro growth inhibition of MOLM-13 tumor cells (MTT/CCK8); type: cell-based, Human; details: Homo sapiens, MOLM-13; in vitro growth inhibition (or induction of apoptosis), cells cultured 3 to 5 days, MTT (CCK8); read-out: IC50 MOLM-13 (FLT3-ITD)

CCN1CCN(c2ccc(Nc3cc(N(C)C(=O)Nc4c(Cl)c(OC)cc(OC)c4Cl)ncn3)cc2)CC1 [BGJ398, reference compound]
IC50 (MDA-MB-453): > 1000 nM | IC50 (MFM-223): > 1000 nM | IC50 (Hep3B2 (FGFR3/4+++)): 38.9 nM | IC50 (H1703 (PDGFRa amp)): > 1000 nM | IC50 (JIMT-1): > 1000 nM | IC50 (Huh-7): 30.9 nM | IC50 (AN3-CA): 62.1 nM | IC50 (H1581 (FGFR1 amp)): 6.97 nM | IC50 (DMS114): 6.97 nM | IC50 (RT112/84): 8.12 nM | IC50 (SNU-16): 2.18 nM | IC50 (A375): > 1000 nM | IC50 (Cal-120): > 1000 nM | IC50 (JHH-7): 31.8 nM | IC50 (KCL-22 (BCR-ABL)): > 1000 nM | IC50 (Karpas 299 (NPM-ALK)): > 1000 nM | IC50 (Kasumi-1 (KIT N822K)): > 1000 nM | IC50 (KATO III (FGFR2 amp)): 0.461 nM

CNC(=O)c1cc2c(Oc3ccc(NC(=O)Nc4cc(C(C)(C)C)n[nH]4)cc3C)ccnc2cc1OC [Compound 52, 4-{4-[3-(5-tert-butyl-2H-pyrazol-3-yl)-ureido]-2-methyl-phenoxy}-7-methoxyquinolin-6-carboxylate acid methylamide]
IC50 (Jurkat): > 1000 nM | IC50 (RS4:11): > 1000 nM | IC50 (Hep3B2 (FGFR3/4+++)): 175 nM | IC50 (H1703 (PDGFRa amp)): 62.4 nM | IC50 (H1581 (FGFR1 amp)): 107 nM | IC50 (MOLM-13 (FLT3-ITD)): 0.06 nM | IC50 (KCL-22 (BCR-ABL)): 7.11 nM | IC50 (Karpas 299 (NPM-ALK)): 203 nM | IC50 (Kasumi-1 (KIT N822K)): 3.83 nM | IC50 (KATO III (FGFR2 amp)): 3.28 nM

COc1cc2nccc(Oc3ccc(NC(=O)Nc4cc(C(C)(C)C)on4)cc3F)c2cc1C(N)=O [Compound 9, 4-{4-[3-(5-tert-butyl-isoxazol-3-yl)-ureido]-2-fluoro-phenoxy}-7-methoxyquinolin-6-carboxamide]
IC50 (Jurkat): 409 nM | IC50 (RS4:11): 750 nM | IC50 (Hep3B2 (FGFR3/4+++)): 47.6 nM | IC50 (H1703 (PDGFRa amp)): 18.5 nM | IC50 (H1581 (FGFR1 amp)): 9.59 nM | IC50 (MOLM-13 (FLT3-ITD)): < 0.05 nM | IC50 (KCL-22 (BCR-ABL)): 35.8 nM | IC50 (Karpas 299 (NPM-ALK)): 352 nM | IC50 (Kasumi-1 (KIT N822K)): 144 nM | IC50 (KATO III (FGFR2 amp)): 1.39 nM
